The text below walks through data of patent publication US20150225404A1, “PYRIDINE DERIVATIVE AND MEDICINE” (NIPPON SHINYAKU CO., LTD., priority 2012, published 2015).

Counter-ions that a name gives are not always drawn.

The assay deals with T1, human mGluR5 (Homo sapiens, UniProt P41594).
T1 construct: expressed in transfected cells
T1 sequence (P41594 21-1212): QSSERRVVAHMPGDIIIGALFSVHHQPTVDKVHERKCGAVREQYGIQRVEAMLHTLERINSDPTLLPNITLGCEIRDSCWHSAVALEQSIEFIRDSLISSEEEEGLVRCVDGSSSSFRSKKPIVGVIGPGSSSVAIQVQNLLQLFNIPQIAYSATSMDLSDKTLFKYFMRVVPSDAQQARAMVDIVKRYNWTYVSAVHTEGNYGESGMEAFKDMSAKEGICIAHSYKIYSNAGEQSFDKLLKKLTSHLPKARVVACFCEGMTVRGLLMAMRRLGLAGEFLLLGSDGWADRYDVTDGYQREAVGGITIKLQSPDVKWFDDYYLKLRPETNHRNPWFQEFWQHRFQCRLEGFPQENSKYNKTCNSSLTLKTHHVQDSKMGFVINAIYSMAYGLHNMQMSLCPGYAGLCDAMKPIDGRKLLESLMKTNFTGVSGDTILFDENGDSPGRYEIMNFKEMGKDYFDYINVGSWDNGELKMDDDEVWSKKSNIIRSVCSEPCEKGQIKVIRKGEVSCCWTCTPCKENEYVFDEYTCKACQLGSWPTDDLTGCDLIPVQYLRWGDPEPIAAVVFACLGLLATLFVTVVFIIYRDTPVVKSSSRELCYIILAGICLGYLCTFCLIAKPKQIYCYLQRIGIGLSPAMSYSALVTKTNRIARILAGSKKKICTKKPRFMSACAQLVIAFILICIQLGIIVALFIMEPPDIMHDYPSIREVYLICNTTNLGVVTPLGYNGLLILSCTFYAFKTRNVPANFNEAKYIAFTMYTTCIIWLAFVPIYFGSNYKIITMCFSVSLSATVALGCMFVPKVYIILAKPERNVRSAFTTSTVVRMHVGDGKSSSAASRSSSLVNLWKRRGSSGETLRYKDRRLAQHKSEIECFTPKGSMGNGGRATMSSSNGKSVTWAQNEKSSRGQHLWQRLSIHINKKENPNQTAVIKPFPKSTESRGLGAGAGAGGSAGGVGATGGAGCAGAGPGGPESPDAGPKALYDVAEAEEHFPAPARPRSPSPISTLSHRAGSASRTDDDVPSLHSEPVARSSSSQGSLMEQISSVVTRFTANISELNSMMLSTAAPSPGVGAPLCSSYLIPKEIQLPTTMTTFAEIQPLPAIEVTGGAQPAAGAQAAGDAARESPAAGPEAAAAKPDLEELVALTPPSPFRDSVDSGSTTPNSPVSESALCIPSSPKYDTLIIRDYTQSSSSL
As to the kind of experiment: Experiment for receptor function of mGluR5 (Ca2+-dependent fluorescence, FLIPR, CHO-K1 cells stably expressing human mGluR5). To be noted: L-glutamic acid 10 μM, Fluo-4 fluorescence. It is filed as cell-based. An outline of the steps:
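Fluo-4-loaded CHO-K1 cells pre-incubated 2 min with test substance, then stimulated with L-glutamic acid (final 10 μM) in HBSS, pH 7.4. FLIPR Ca2+ fluorescence normalized to glutamate alone (100%) and glutamate with 10 μM MPEP (0%); IC50 estimated by logistic fit.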
For `Cc1nc(COc2cc(-c3cccnc3)c3c(n2)CCCC3)cs1` [Example 96, 2-[(2-Methyl-1,3-thiazol-4-yl)methoxy]-4-(pyridin-3-yl)-5,6,7,8-tetrahydroquinoline], the IC50 (commonly the midpoint of a concentration-inhibition curve) was determined as 56.3 nM.

The compound `Cc1coc(COc2cc(-c3cccnc3)c3c(n2)CCCC3)n1` [Example 92, 2-[(4-Methyl-1,3-oxazol-2-yl)methoxy]-4-(pyridin-3-yl)-5,6,7,8-tetrahydroquinoline] displayed an IC50 of 40.1 nM.

For `N#Cc1cccc(COc2cc(-c3cccnc3)c3c(n2)CCC3)c1` [Example 245, 3-({[4-(Pyridin-3-yl)-6,7-dihydro-5H-cyclopenta[b]pyridin-2-yl]oxy}methyl)benzonitrile], inhibition was half-maximal at 39 nM (IC50).

With `Clc1cnc(-c2cc(OCc3ccccn3)nc3c2CCCC3)cn1` [Example 196, 4-(5-Chloropyrazin-2-yl)-2-(pyridin-2-ylmethoxy)-5,6,7,8-tetrahydroquinoline hydrochloride], the IC50 came out at 170 nM.

`COc1cncc(-c2cc(OCc3ccccn3)nc3c2CCCC3)c1` [Example 102, 4-(5-Methoxypyridin-3-yl)-2-(pyridin-2-ylmethoxy)-5,6,7,8-tetrahydroquinoline hydrochloride]: half-maximal inhibition (IC50) required 51.2 nM.

As for `Cc1ncc(-c2cc(OCc3ncccc3F)nc3c2CCC3)cn1` [Example 41, 2-[(3-Fluoropyridin-2-yl)methoxy]-4-(2-methylpyrimidin-5-yl)-6,7-dihydro-5H-cyclopenta[b]pyridine], the midpoint of inhibition, the IC50, lay at 30 nM.

In turn, `N#Cc1ncc(-c2cc(OCc3ccc(F)cn3)nc3c2CCC3)cn1` [Example 49, 5-{2-[(5-Fluoropyridin-2-yl)methoxy]-6,7-dihydro-5H-cyclopenta[b]pyridin-4-yl}pyrimidine-2-carbonitrile] returned an IC50 of 55 nM.

Compound `N#Cc1ccc(-c2cc(OCc3ccccn3)nc3c2CCCC3)cn1` [Example 104, 5-[2-(Pyridin-2-ylmethoxy)-5,6,7,8-tetrahydroquinolin-4-yl]pyridine-2-carbonitrile hydrochloride] gave an IC50 of 51.7 nM.

`Fc1cnccc1COc1cc(-c2cncnc2)c2c(n1)CCC2` [Example 32, 2-[(3-Fluoropyridin-4-yl)methoxy]-4-(pyrimidin-5-yl)-6,7-dihydro-5H-cyclopenta[b]pyridine]: the half-inhibitory concentration (IC50) is 31 nM.

Compound `c1ccc(COc2cc(-c3cnccn3)c3c(n2)CCC3)nc1` [Example 53, 4-(Pyrazin-2-yl)-2-(pyridin-2-ylmethoxy)-6,7-dihydro-5H-cyclopenta[b]pyridine hydrochloride] showed an IC50 of 11.4 nM.

As for `N#Cc1ccc(COc2cc(-c3cncnc3)c3c(n2)CCCC3)nc1` [Example 150, 6-({[4-(Pyrimidin-5-yl)-5,6,7,8-tetrahydroquinolin-2-yl]oxy}methyl)pyridine-3-carbonitrile], the IC50 came to 63 nM.

Compound `N#Cc1cncc(-c2cc(OCc3ccccn3)nc3c2CCCC3)c1` [Example 113, 5-[2-(Pyridin-2-ylmethoxy)-5,6,7,8-tetrahydroquinolin-4-yl]pyridine-3-carbonitrile hydrochloride] showed an IC50 of 68.8 nM.

As to `N#Cc1cccc(COc2cc(-c3cncc(CO)c3)c3c(n2)CCC3)c1` [Example 253, 3-[({4-[5-(Hydroxymethyl)pyridin-3-yl]-6,7-dihydro-5H-cyclopenta[b]pyridin-2-yl}oxy)methyl]benzonitrile], the IC50 turned out to be 80 nM.

As to `OCc1cncc(-c2cc(OCc3cccc(F)c3)nc3c2CCC3)c1` [Example 249, (5-{2-[(3-Fluorobenzyl)oxy]-6,7-dihydro-5H-cyclopenta[b]pyridin-4-yl}pyridin-3-yl)methanol], the IC50 stood at 53 nM.

For `FC(F)(F)c1cccc(COc2cc(-c3cncnc3)c3c(n2)CCCC3)n1` [Example 154, 4-(Pyrimidin-5-yl)-2-{[6-(trifluoromethyl)pyridin-2-yl]methoxy}-5,6,7,8-tetrahydroquinoline hydrochloride], the IC50 was found to be 280 nM.

In turn, `N#Cc1ccc(COc2cc(-c3cncnc3)c3c(n2)CCC3)cc1` [Example 258, 4-({[4-(Pyrimidin-5-yl)-6,7-dihydro-5H-cyclopenta[b]pyridin-2-yl]oxy}methyl)benzonitrile] returned an IC50 of 10.1 nM.

The compound `N#Cc1cccc(COc2cc(-c3cncnc3)c3c(n2)CCCC3)n1` [Example 149, 6-({[4-(Pyrimidin-5-yl)-5,6,7,8-tetrahydroquinolin-2-yl]oxy}methyl)pyridine-2-carbonitrile] gave an IC50 of 19.3 nM.

Compound `N#Cc1cc(COc2cc(-c3cncnc3)c3c(n2)CCCC3)ccn1` [Example 282, 4-({[4-(Pyrimidin-5-yl)-5,6,7,8-tetrahydroquinolin-2-yl]oxy}methyl)pyridine-2-carbonitrile] gave an IC50 of 66 nM.

Regarding `N#Cc1cccc(COc2cc(-c3cncc(CO)n3)c3c(n2)CCC3)n1` [Example 56, 6-[({4-[6-(Hydroxymethyl)pyrazin-2-yl]-6,7-dihydro-5H-cyclopenta[b]pyridin-2-yl}oxy)methyl]pyridine-2-carbonitrile], the midpoint of inhibition, the IC50, lay at 495 nM.

On to `c1ccc(COc2cc(-c3cnccn3)c3c(n2)CCCC3)nc1` [Example 194, 4-(Pyrazin-2-yl)-2-(pyridin-2-ylmethoxy)-5,6,7,8-tetrahydroquinoline hydrochloride], for which the IC50 worked out at 11.4 nM.

`N#Cc1ccc(COc2cc(-c3cccnn3)c3c(n2)CCC3)cc1` [Example 273, 4-({[4-(Pyridazin-3-yl)-6,7-dihydro-5H-cyclopenta[b]pyridin-2-yl]oxy}methyl)benzonitrile] showed an IC50 of 62 nM.

`COCc1cccc(COc2cc(-c3cccnc3)c3c(n2)CCCC3)n1` [Example 89, 2-{[6-(Methoxymethyl)pyridin-2-yl]methoxy}-4-(pyridin-3-yl)-5,6,7,8-tetrahydroquinoline]: inhibition was half-maximal at 41.4 nM (IC50).

For `Cc1ncc(-c2cc(OCc3cccc(F)n3)nc3c2CCCC3)cn1` [Example 185, 2-[(6-Fluoropyridin-2-yl)methoxy]-4-(2-methylpyrimidin-5-yl)-5,6,7,8-tetrahydroquinoline], the IC50 was 26 nM.

With `CN(C)C(=O)c1cncc(-c2cc(OCc3ccccn3)nc3c2CCCC3)c1` [Example 120, N,N-Dimethyl-5-[2-(pyridin-2-ylmethoxy)-5,6,7,8-tetrahydroquinolin-4-yl]pyridine-3-carboxamide hydrochloride], the IC50 worked out at 206 nM.

Take `Nc1cncc(-c2cc(OCc3ccccn3)nc3c2CCCC3)n1` [Example 206, 6-[2-(Pyridin-2-ylmethoxy)-5,6,7,8-tetrahydroquinolin-4-yl]pyrazin-2-amine hydrochloride]: 36.5 nM corresponded to half-maximal inhibition (IC50).

For the compound `Nc1ncc(-c2cc(OCc3ccccn3)nc3c2CCCC3)cn1` [Example 169, 5-[2-(Pyridin-2-ylmethoxy)-5,6,7,8-tetrahydroquinolin-4-yl]pyrimidin-2-amine], half-maximal inhibition (IC50) was put at 13.9 nM.

In the case of `N#Cc1ncc(-c2cc(OCc3ncc(F)cc3F)nc3c2CCC3)cn1` [Example 44, 5-{2-[(3,5-Difluoropyridin-2-yl)methoxy]-6,7-dihydro-5H-cyclopenta[b]pyridin-4-yl}pyrimidine-2-carbonitrile], 166 nM corresponded to half-maximal inhibition (IC50).

`CN(C)c1cncc(-c2cc(OCc3ccccn3)nc3c2CCCC3)c1` [Example 126, N,N-Dimethyl-5-[2-(pyridin-2-ylmethoxy)-5,6,7,8-tetrahydroquinolin-4-yl]pyridin-3-amine] yielded an IC50 of 99.8 nM.
